We go through 13 molecules from ChEMBL document CHEMBL3228035, “Deoxymorphines: role of the phenolic hydroxyl in antinociception and opiate receptor interactions” (J Med Chem, 1979).

Experiment [1] concerns Mus musculus. Briefly: Antinociceptive activity in sc dosed mouse by hot-plate assay. Type of experiment: functional. On the technique in general: Hot-plate and tail-flick tests time the reaction to a heat stimulus.
Experiment [2] has as its system Mus musculus. Briefly: Antinociceptive activity in sc dosed mouse by Nilsen assay. Type of experiment: functional.

Structures can show the parent of a compound that is named as a salt.

For orientation: ED50 means the dose that gives a 50% effect, or the effect in half of the subjects. A low value points to an effect at a small dose. Consider `CN1CC[C@]23CCCC[C@H]2[C@H]1Cc1ccc(O)cc13`, for which the ED50 in the experiment with Mus musculus [1] and with Mus musculus [2] was 0.5 µmol/kg throughout.
As for `CN1CC[C@]23c4c5ccc(O)c4O[C@H]2[C@@H](O)C=C[C@H]3[C@H]1C5`, the 50% effective dose (ED50) in the experiment with Mus musculus [1] was 3.3 µmol/kg; in the experiment with Mus musculus [2], 4.1 µmol/kg.
For `O[C@H]1CC[C@H]2[C@H]3Cc4cccc5c4[C@@]2(CCN3)[C@H]1O5`, the ED50 came out at 45.3 µmol/kg in the experiment on Mus musculus [1] and 67.8 µmol/kg with Mus musculus [2].
The like results for `CN1CC[C@]23c4c5cccc4O[C@H]2[C@@H](O)CC[C@H]3[C@H]1C5` were, in that order, 4.2 µmol/kg and 8.1 µmol/kg.
For `CN1CC[C@]23c4c5cccc4O[C@H]2C(=O)CC[C@H]3[C@H]1C5`, in that order: 1.8 µmol/kg and 2.8 µmol/kg.
For `C=CCN1CC[C@]23c4c5cccc4O[C@H]2[C@@H](O)CC[C@H]3[C@H]1C5`, in that order: 44 µmol/kg and 59.9 µmol/kg.
Consider `c1cc2c3c(c1)O[C@H]1CCC[C@H]4[C@@H](C2)NCC[C@]314`, for which the ED50 was determined as 1.3 µmol/kg in the experiment on Mus musculus [1] and 4.4 µmol/kg in the experiment on Mus musculus [2].
On to `CN1CC[C@]23c4c5ccc(O)c4O[C@H]2CCC[C@H]3[C@H]1C5`, for which the ED50 with Mus musculus [1] turned out to be 0.14 µmol/kg.
In the case of `CN1CC[C@]23c4c5ccc(O)c4O[C@H]2[C@@H](O)CC[C@H]3[C@H]1C5`, the ED50 in the experiment on Mus musculus [1] was determined as 2.5 µmol/kg.
For the molecule `CN1CC[C@]23c4c5cccc4O[C@H]2[C@@H](O)C=C[C@H]3[C@H]1C5`, the figures for the ED50 with Mus musculus [1] and in the experiment with Mus musculus [2] were 8.6 µmol/kg and 30.9 µmol/kg, respectively.
With `CN1CCC23CCCCC2C1Cc1ccccc13` (racemic), in the experiment with Mus musculus [1], the ED50 is 16.5 µmol/kg.
Turning to `CN1CC[C@]23c4c5ccc(O)c4O[C@H]2C(=O)CC[C@H]3[C@H]1C5` [HYDROMORPHONE HYDROCHLORIDE], the ED50 stood at 0.4 µmol/kg in the experiment on Mus musculus [1] and 0.7 µmol/kg in the experiment on Mus musculus [2].
For `C=CCN1CC[C@]23c4c5ccc(O)c4O[C@H]2[C@@H](O)C=C[C@H]3[C@H]1C5` [NALORPHINE HYDROCHLORIDE], the ED50 is 105 µmol/kg with Mus musculus [1] and 13.8 µmol/kg in the experiment on Mus musculus [2].
